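48-hour exposure; five concentrations; linearly interpolated endpoints. The concentration for 50% growth inhibition is given as GI50. At the TGI there is no net growth.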
system: SR leukemia; test: inhibition of tumour cell growth, NCI panel, 48 h

Going from `CC(C)(C)OC(=O)n1c(-c2ccccc2F)cc(=O)c2cc3c(cc21)OCO3` to `COc1ccc2c(c1)C(C)Cc1c(ncnc1-n1cnc3cc(C)ccc31)N2C` (stereo unspecified), the TGI falls from > 34.6 µM to 11.1 µM.

`Clc1ccc(N=CNc2ccc(-c3nc4ccccc4o3)cc2)cc1` was tested, and the TGI was > 100 µM.

In order of rising GI50:
1. COc1ccc2c(c1)C(C)Cc1c(ncnc1-n1cnc3cc(C)ccc31)N2C (stereo unspecified)  0.0443 µM
2. Clc1ccc(N=CNc2ccc(-c3nc4ccccc4o3)cc2)cc1  40.6 µM

system: UACC-62 melanoma; test: inhibition of tumour cell growth, NCI panel, 48 h

Going from `CC(C)(C)OC(=O)n1c(-c2ccccc2F)cc(=O)c2cc3c(cc21)OCO3` to `COc1ccc2c(c1)C(C)Cc1c(ncnc1-n1cnc3cc(C)ccc31)N2C` (stereo unspecified), the TGI falls from > 100 µM to 18 µM.

Going from `c1csc(-c2c3ccc(=[N+]4CCCCC4)cc-3oc3cc(N4CCCCC4)ccc23)c1` to `Clc1ccc(N=CNc2ccc(-c3nc4ccccc4o3)cc2)cc1`, the TGI rises from 0.356 µM to > 100 µM.

For `COC(=O)c1cc(/C=C/c2ccc(S(N)(=O)=O)cc2)ccc1O`, the TGI was 66 µM.

In order of rising GI50:
1. COc1ccc2c(c1)C(C)Cc1c(ncnc1-n1cnc3cc(C)ccc31)N2C (stereo unspecified)  0.0436 µM
2. c1csc(-c2c3ccc(=[N+]4CCCCC4)cc-3oc3cc(N4CCCCC4)ccc23)c1  0.159 µM
3. Clc1ccc(N=CNc2ccc(-c3nc4ccccc4o3)cc2)cc1  25.3 µM
4. COC(=O)c1cc(/C=C/c2ccc(S(N)(=O)=O)cc2)ccc1O  25.6 µM

system: MDA-MB-231 breast; test: inhibition of tumour cell growth, NCI panel, 48 h

In order of falling GI50:
1. Clc1ccc(N=CNc2ccc(-c3nc4ccccc4o3)cc2)cc1  25.6 µM
2. COC(=O)c1cc(/C=C/c2ccc(S(N)(=O)=O)cc2)ccc1O  24.9 µM
3. COc1ccc2c(c1)C(C)Cc1c(ncnc1-n1cnc3cc(C)ccc31)N2C (stereo unspecified)  0.229 µM

In order of rising TGI:
1. COc1ccc2c(c1)C(C)Cc1c(ncnc1-n1cnc3cc(C)ccc31)N2C (stereo unspecified)  18.6 µM
2. COC(=O)c1cc(/C=C/c2ccc(S(N)(=O)=O)cc2)ccc1O  60.5 µM
3. Clc1ccc(N=CNc2ccc(-c3nc4ccccc4o3)cc2)cc1  89.4 µM

system: HL-60(TB) leukemia; test: inhibition of tumour cell growth, NCI panel, 48 h

Going from `c1csc(-c2c3ccc(=[N+]4CCCCC4)cc-3oc3cc(N4CCCCC4)ccc23)c1` to `COc1ccc2c(c1)C(C)Cc1c(ncnc1-n1cnc3cc(C)ccc31)N2C` (stereo unspecified), the GI50 falls from 0.145 µM to 0.0956 µM (1.5-fold).

Compared with `COC(=O)c1cc(/C=C/c2ccc(S(N)(=O)=O)cc2)ccc1O`, `Clc1ccc(N=CNc2ccc(-c3nc4ccccc4o3)cc2)cc1` is lower in GI50: > 100 µM for the first, 38.5 µM for the second.

`c1csc(-c2c3ccc(=[N+]4CCCCC4)cc-3oc3cc(N4CCCCC4)ccc23)c1` and `COc1ccc2c(c1)C(C)Cc1c(ncnc1-n1cnc3cc(C)ccc31)N2C` (stereo unspecified) are within 1.5-fold of each other in TGI: 0.547 µM for the first, 0.433 µM for the second.

`COC(=O)c1cc(/C=C/c2ccc(S(N)(=O)=O)cc2)ccc1O` and `Clc1ccc(N=CNc2ccc(-c3nc4ccccc4o3)cc2)cc1` cannot be ordered by TGI: > 100 µM for the first, > 100 µM for the second.

system: EKVX NSCLC; test: inhibition of tumour cell growth, NCI panel, 48 h

Going from `CC(C)(C)OC(=O)n1c(-c2ccccc2F)cc(=O)c2cc3c(cc21)OCO3` to `COc1ccc2c(c1)C(C)Cc1c(ncnc1-n1cnc3cc(C)ccc31)N2C` (stereo unspecified), the TGI falls from > 100 µM to 23.2 µM.

Compared with `COC(=O)c1cc(/C=C/c2ccc(S(N)(=O)=O)cc2)ccc1O`, `Clc1ccc(N=CNc2ccc(-c3nc4ccccc4o3)cc2)cc1` is lower in TGI: > 100 µM for the first, 2.84 µM for the second.

In order of rising GI50:
1. Clc1ccc(N=CNc2ccc(-c3nc4ccccc4o3)cc2)cc1  0.241 µM
2. COc1ccc2c(c1)C(C)Cc1c(ncnc1-n1cnc3cc(C)ccc31)N2C (stereo unspecified)  0.25 µM
3. COC(=O)c1cc(/C=C/c2ccc(S(N)(=O)=O)cc2)ccc1O  29.3 µM

system: A498 renal; test: inhibition of tumour cell growth, NCI panel, 48 h

Compared with `CC(C)(C)OC(=O)n1c(-c2ccccc2F)cc(=O)c2cc3c(cc21)OCO3`, `COc1ccc2c(c1)C(C)Cc1c(ncnc1-n1cnc3cc(C)ccc31)N2C` (stereo unspecified) is lower in TGI: > 94.7 µM for the first, 0.0889 µM for the second.

Compared with `c1csc(-c2c3ccc(=[N+]4CCCCC4)cc-3oc3cc(N4CCCCC4)ccc23)c1`, `COC(=O)c1cc(/C=C/c2ccc(S(N)(=O)=O)cc2)ccc1O` is 45-fold higher in TGI: 0.453 µM for the first, 20.2 µM for the second.

In order of rising GI50:
1. COC(=O)c1cc(/C=C/c2ccc(S(N)(=O)=O)cc2)ccc1O  0.0161 µM
2. COc1ccc2c(c1)C(C)Cc1c(ncnc1-n1cnc3cc(C)ccc31)N2C (stereo unspecified)  0.0255 µM
3. c1csc(-c2c3ccc(=[N+]4CCCCC4)cc-3oc3cc(N4CCCCC4)ccc23)c1  0.0683 µM

system: DU-145 prostate; test: inhibition of tumour cell growth, NCI panel, 48 h

Compared with `CC(C)(C)OC(=O)n1c(-c2ccccc2F)cc(=O)c2cc3c(cc21)OCO3`, `COc1ccc2c(c1)C(C)Cc1c(ncnc1-n1cnc3cc(C)ccc31)N2C` (stereo unspecified) is lower in TGI: > 100 µM for the first, 12.1 µM for the second.

First: c1csc(-c2c3ccc(=[N+]4CCCCC4)cc-3oc3cc(N4CCCCC4)ccc23)c1
Second: Clc1ccc(N=CNc2ccc(-c3nc4ccccc4o3)cc2)cc1
The TGI of the first is 190-fold lower: 0.201 µM for the first, 38.2 µM for the second.

With `COC(=O)c1cc(/C=C/c2ccc(S(N)(=O)=O)cc2)ccc1O` the TGI was > 100 µM.

In order of rising GI50:
1. c1csc(-c2c3ccc(=[N+]4CCCCC4)cc-3oc3cc(N4CCCCC4)ccc23)c1  0.0578 µM
2. COc1ccc2c(c1)C(C)Cc1c(ncnc1-n1cnc3cc(C)ccc31)N2C (stereo unspecified)  0.325 µM
3. Clc1ccc(N=CNc2ccc(-c3nc4ccccc4o3)cc2)cc1  14 µM
4. COC(=O)c1cc(/C=C/c2ccc(S(N)(=O)=O)cc2)ccc1O  15.9 µM
